The text below walks through data of PMC8400257, “2-Phenoxy-3-Trichloromethylquinoxalines Are Antiplasmodial Derivatives with Activity against the Apicoplast of Plasmodium falciparum” (Pharmaceuticals, 2021).

The subject of data set [1] is Pf3D7 (3D7 chloroquine-sensitive strain). The conditions noted are these: Figure 2; cited from earlier work.
Data set [2] deals with HepG2. The conditions noted are these: Figure 2; cited from earlier work.
The test system of data set [3] is P. falciparum (NF135 strain) hepatic exoerythrocytic forms. In words: Liver stage development in infected primary human hepatocytes. It is filed as cell-based, Plasmodium falciparum. To be noted: 3i 0.9-30 µM, ATQ 25 nM; 6 or 12 days post-infection. The method, then:
The effect of (3i) on the hepatic stage of P. falciparum was next studied in order to know if (3i) was active against another stage of P. falciparum cycle. Cryopreserved primary human hepatocytes were infected with 30,000 freshly extracted P. falciparum sporozoites and simultaneously treated with a dose range (0.9–30 µM) of (3i). Atovaquone (ATQ) was used as a positive parasite-killing control at 25 nM.
P. falciparum (NF135 strain) sporozoites were isolated by dissection of the salivary glands of infected A. stephensi 14–21 days after an infective blood meal (Department of medical microbiology, University Medical Centre, St Radboud, Nijmegen Netherland). All infected salivary glands were removed by hand dissection, crushed in a potter for sporozoites isolation, and filtrated through a 40 μm filter to remove mosquito debris (Cell Strainer, BD BioSciences, Franklin Lakes, NJ, USA). The sporozoites were counted using a disposable Glasstic microscope slide (KOVA, Garden Grove, CA, USA).
One day before hepatocyte thawing, 96-well plates were coated by a Corning®® collagen solution (50 µg/mL rat tail type I collagen in 0.02N acid acetic) over night at room temperature. The next day, the wells were washed twice by PBS solution. Cryopreserved primary human hepatocytes (LONZA, Basel, Swiss) were seeded in 96-well plates with a pre-determined seeding dose that gave a single dense layer of attached hepatocytes. Four days post-seeding, each plate well was infected with 30,000 freshly extracted Plasmodium falciparum sporozoites. […]
Hepatocyte cultures were fixed with 4% paraformaldehyde solution (PFA, Invitrogen) for 10 min. […] Images were analyzed and prepared with ImageJ software. Apicoplast morphology was observed and quantified by eye under a confocal microscope.
Upon immunostaining of parasites, the study plates were scanned using a CellInsight high-content screening platform equipped with the Studio HCS software (Thermo Fisher Scientific, Waltham, MA, USA). […] The number of host hepatocyte nuclei per well was counted by the system as a measure of toxicity of 3i towards the liver cells. […]

The test system of data set [4] is K1 chloroquine and pyrimethamine-resistant P. falciparum strain. Put plainly: In vitro antiplasmodial evaluation (SYBR Green I). It is filed as cell-based, Plasmodium falciparum. To be noted: for EC50: K1 strain, 72 h incubation, three independent experiments, read-out: EC50 PfK1 (µM) ± SD. The protocol:
(§1) For all molecules, the selectivity index was calculated as following SI = CC50/EC50.
It was maintained in continuous culture, as described previously by Trager and Jensen. Cultures were maintained in fresh A+ human erythrocytes at 2.5% hematocrit in complete medium (RPMI 1640 with 25 mM HEPES, 25 mM NaHCO3, 10% of A+ human serum) at 37 °C under reduced O2 atmosphere (gas mixture 10% O2, 5% CO2, and 85% N2). Parasitemia was maintained daily between 1 and 3%. The P. falciparum drug susceptibility test was carried out by comparing quantities of DNA in treated and control cultures of parasite in human erythrocytes according to an SYBR Green I fluorescence-based method using a 96-well fluorescence plate reader. Compounds, previously dissolved in DMSO (final concentration less than 0.5% v/v), were incubated in a total assay volume of 200 μL (RPMI, 2% hematocrit and 0.4% parasitemia) for 72 h in a humidified atmosphere (10% O2 and 5% CO2) at 37 °C, in 96-well flat bottom plates. Duplicate assays were performed for each sample. After incubation, plates were frozen at […] for 24 h. Then, the frozen plates were thawed for 1 h at 37 °C. Fifteen µL of each sample were transferred to 96-well flat bottom non-sterile black plates (Greiner Bio-one, Kremsmünster, Austria), already containing 15 µL of the SYBR Green I lysis buffer (2X SYBR Green I, 20 mM Tris base pH 7.5, 20 mM EDTA, 0.008% w/v saponin, 0.08% w/v Triton X-100). […] Plates were incubated for 15 min at 37 °C and then read on a TECAN Infinite F-200 spectrophotometer with excitation and emission wavelengths at 485 and 535 nm, respectively.

A short description of data set [5]: In vitro cytotoxicity evaluation HepG2 (MTT). It is filed as cell-based, human. To be noted: human, CC50 HepG2 (µM) ± SD. The method, then: as §1
(§2) Triplicate assays were performed for each sample. Each plate-well was then microscopically examined for possible precipitate formation before the medium was aspirated from the wells. Next, 100 µL of MTT (3-(4,5-dimethyl-2-thiazolyl)-2,5-diphenyl -2H-tetrazolium bromide) solution (0.5 mg/mL in medium without FBS) was added to each well. […] After this time, the MTT solution was removed and DMSO (100 μL) was added to dissolve the resulting blue formazan crystals. Plates were shaken vigorously (700 rpm) for 10 min. The absorbance was measured at 570 nm with 630 nm as reference wavelength using a BIO-TEK ELx808 Absorbance Microplate Reader (LabX, Midland, ON, Canada). DMSO was used as blank and doxorubicin (purchased from Sigma Aldrich) as positive control. Cell viability was calculated as a percentage of control (cells incubated without compound). […] CC50 values to represent the mean value calculated from three independent experiments.

Data set [6] deals with HepG2 human hepatocyte cell line. In words: In vitro cytotoxicity evaluation HepG2 (MTT). It is filed as cell-based. The method, then: as §1, §2
Data set [7] can be described thus: Aqueous solubility in the cell culture medium. The class given is physicochemical. The method, then: It appeared that the cluttered derivatives (3q, 3s) and the 2-chlorophenoxy derivative (3b) were the less cytotoxic compounds.
The HepG2 cell line was maintained at 37 °C, 5% CO2, at 90% humidity in MEM supplemented with 10% fetal bovine serum, 1% L-glutamine (200 mM), and penicillin (100 U/mL)/streptomycin (100 μg/mL) (complete RPMI medium). The cytotoxicity of the tested molecules on the HepG2 (hepatocarcinoma cell line purchased from ATCC, ref HB-8065) cell line was assessed according to the method of Mosmann with slight modifications. Briefly, 5.10^3 cells in 100 μL of complete medium were inoculated into each well of 96-well plates and incubated at 37 °C in humidified 5% CO2. After 24 h incubation, 100 μL of medium with various product concentrations dissolved in DMSO (final concentration less than 0.5% v/v) were added and the plates were incubated for 72 h at 37 °C. Triplicate assays were performed for each sample. Each plate-well was then microscopically examined for possible precipitate formation before the medium was aspirated from the wells. Next, 100 µL of MTT (3-(4,5-dimethyl-2-thiazolyl)-2,5-diphenyl -2H-tetrazolium bromide) solution (0.5 mg/mL in medium without FBS) was added to each well. Cells were incubated for 2 h at 37 °C. After this time, the MTT solution was removed and DMSO (100 μL) was added to dissolve the resulting blue formazan crystals. Plates were shaken vigorously (700 rpm) for 10 min. The absorbance was measured at 570 nm with 630 nm as reference wavelength using a BIO-TEK ELx808 Absorbance Microplate Reader (LabX, Midland, ON, Canada). DMSO was used as blank and doxorubicin (purchased from Sigma Aldrich) as positive control. Cell viability was calculated as a percentage of control (cells incubated without compound). […] CC50 values to represent the mean value calculated from three independent experiments.

For data set [8], the system named is P. falciparum apicoplast. In words: Immunofluorescence assay of apicoplast biogenesis on treated blood-stage parasites. The class given is cell-based, Plasmodium falciparum. To be noted: 48 h, 0.2 µM. The method, then: (§3) To determine the impact of (3i) on apicoplast biogenesis, parasites were treated for 48 h with 0.2 µM of (3i) or 0.2 µM of (2i) (a control of (3i) for which the active CCl3 was replaced by a methyl CH3 group) and compared to untreated parasites by immunofluorescence assay. […] In order to determine if the apicoplast is the main target of (3i), we performed a growth assay over three life cycles to assess a potential delayed death effect, one of the major signature for compounds affecting apicoplast. […] The second interpretation could be that, unlike chloramphenicol or doxycycline, which cause a delayed death phenotype on Plasmodium, (3i) could act like fosmidomycin or actinonin and cause a rapid death phenotype.
Plasmodium falciparum blood stage parasites were maintained at 2% hematocrit in 1640 RPMI-HEPES, supplemented with 5% AlbuMAX II (GIBCO) and 0.25% gentamycin. Parasites were grown sealed Perspex chambers gassed with beta mix gas (1% O2, 5% CO2 and 94% N2) at 37 °C and maintained on 48-h cycles. Cultures were tightly synchronized at ring stage using sorbitol treatment (5% v/v) as previously described.
Prior to the treatment, parasites were synchronized using 5% sorbitol. After 48 h treatment ([…] or DMSO) parasites were fixed using 4% paraformaldehyde (PFA) and 0.0075% glutaraldehyde for 30 min at room temperature. […]

The test system of data set [9] is Plasmodium falciparum blood stage parasites. In words: Growth assay over three life cycles (delayed death). The class given is cell-based. To be noted: 0.2 µM; 48, 96, 144 h. The protocol: as §3
To observe a potential effect of delayed death of the molecule on the parasite, Plasmodium was maintained on three life cycles (48 h). […] Fluorescence from each well was measured with TECAN infinite M200 plate reader (excitation: 485 nm, emission: 538 nm and integration time: 1000 μs). […] A graph was obtained by performing the ration of the treated culture fluorescence intensity on the untreated culture fluorescence intensity (n = 3).

Where [10] appears, read: Plasmodium falciparum, K1, 72 h.

Where two headings read alike, the source gives them in different places.

On to `Brc1ccc(Nc2nc3ccccc3nc2Nc2ccc(Br)cc2)cc1` [MMV007224], for which, in data set [1], the EC50 was 1.06 µM. The CC50 in data set [2] was 5.1 µM.

`O=C1C(O)=C([C@H]2CC[C@H](c3ccc(Cl)cc3)CC2)C(=O)c2ccccc21` [ATQ, Atovaquone, reference compound]: the “Effect on exoerythrocytic forms (EEF or schizont) size and numbers” value in [3] is on record as “completely clear all parasites from the culture”.

`FS(F)(F)(F)(F)c1ccc(Oc2nc3ccccc3nc2C(Cl)(Cl)Cl)cc1` [3l, 2-Trichloromethyl-3-[4-(pentafluorosulfanyl)phenoxy]quinoxaline] registered a melting point of 99 °C. Further, the EC50 in data set [4] (setting [10]) came out at 0.2 ± 0.03 µM. Also, the “SI (selectivity index)” value in data set [4] (SI = CC50 HepG2/EC50 PfK1) stood at 83.0. The molecule further registered a CC50 at 72 h in [5] of 15.4 µM. Further, in data set [6] (human, 72 h), the CC50 came to 16.6 ± 3.9 µM.

In the case of “2-(Naphthalen-2-yloxy)-3-trichloromethylquinoxaline [3q]”, in data set [4], the EC50 came to 0.6 ± 0.1 µM. For the same molecule, in [6], the CC50 was determined as 53.1 ± 7.6 µM.

In the case of “2-(Naphthalen-1-yloxy)-3-trichloromethylquinoxaline [3r]”, the EC50 in data set [4] was 0.4 ± 0.08 µM. Besides, the CC50 in [6] was above 31.2 µM. In addition, the “Aqueous solubility in the cell culture medium” value in [7] is “poor aqueous solubility”.

The molecule `N#Cc1ccc(Oc2nc3ccccc3nc2C(Cl)(Cl)Cl)cc1` [3n, 4-[(3-Trichloromethylquinoxalin-2-yl)oxy]benzonitrile] gave a melting point of 194 °C. The EC50 in data set [4] (setting [10]) was determined as 0.2 µM. The molecule also gave a CC50 at 72 h in data set [5] of 16.6 µM. Besides, the CC50 in [6] (human, 72 h) is 15.4 ± 2.1 µM.

Regarding `Cc1nc2ccccc2nc1Oc1ccc([N+](=O)[O-])cc1` [2i, 2-Methyl-3-(4-nitrophenoxy)quinoxaline], the EC50 was above 16 µM in data set [4] and above 25 µM in [4] (setting [10]). Further, the “Effect on apicoplast biogenesis (immunofluorescence)” value in data set [8] is “absence of effect”. In addition, the “Parasite growth over three life cycles (ratio treated/untreated)” value in data set [9] is “absence of effect”.
